Measured values published in ChEMBL document CHEMBL1143474, “Synthesis and pharmacological evaluation of Tic-hydantoin derivatives as selective sigma1 ligands. Part 1” (Bioorg Med Chem Lett, 2005).

Assays:
Sigma 2 receptor = assay: Inhibitory concentration against opioid receptor sigma 2 of rat cerebral cortex using [3H]DTG upon incubation for 120 minutes at 22 degree C; assay type: tissue-based
[1] = target: Sigma non-opioid intracellular receptor 1 (Cavia porcellus) (UniProt Q60492); assay: Inhibitory concentration against opioid receptor sigma 1 of guinea pig cerebral cortex using [3H](+)-pentazocine upon incubation for 150 minutes at 22 degree C
Chain of Sigma non-opioid intracellular receptor 1 (Cavia porcellus) (Q60492 whole entry, looked up): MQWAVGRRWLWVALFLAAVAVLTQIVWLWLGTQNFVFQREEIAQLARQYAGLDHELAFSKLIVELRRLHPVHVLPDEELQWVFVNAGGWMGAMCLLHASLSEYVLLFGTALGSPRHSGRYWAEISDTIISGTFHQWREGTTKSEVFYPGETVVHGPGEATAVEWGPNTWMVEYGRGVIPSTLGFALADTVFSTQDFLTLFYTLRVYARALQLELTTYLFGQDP

Structure (SMILES)	IC50 (Sigma 2 receptor)	IC50 [1]
O=C1[C@@H]2Cc3ccccc3N2C(=O)N1CCCN1CCCCC1	> 1000 nM	
O=C1[C@@H]2Cc3ccccc3CN2C(=S)N1CCN1CCCCC1	507 nM	
c1ccc2c(c1)C[C@H]1CN(CCN3CCCCC3)CN1C2	> 1000 nM	
O=C1[C@@H]2Cc3ccccc3CN2C(=O)N1CCN1CCCCC1	> 1000 nM	16 nM
O=C1[C@@H]2Cc3ccccc3CN2C(=O)N1CCCN1CCCCC1	> 1000 nM	21.5 nM

The next lines start with the values.

IC50 (Sigma 2 receptor)	IC50 [1]	Structure (SMILES)
> 1000 nM		O=C1N(CCN2CCCCC2)C[C@@H]2Cc3ccccc3CN12
> 1000 nM		O=C1[C@H]2Cc3ccccc3CN2C(=O)N1CCN1CCCCC1
